Publication PMC6268933 (Molecules, 2012)
Read-outs that look alike come from different tables or passages of the source.

How the values were obtained:
[1] = DPPH radical scavenging activity (RSA) assay; assay type: biochemical; conditions: for IC50: 15 min in the dark at room temperature, 515 nm, mean ± SD (n = 3), read-out: DPPH radical scavenging activities (IC50); for average fold higher DPPH scavenging activity compared to compounds 1 to 6: positive controls vs compounds 1 to 6
Protocol: The antioxidant activity of all six compounds was determined by the DPPH radical scavenging method according to the previous procedure with modification. Each compound was diluted two-fold in a series of five starting from 5.00 mg/mL. The solution of DPPH in methanol (6 × 10^−5 M) was prepared daily before UV measurements. A 3 mL aliquot of this solution was mixed with 77 μL of the compound solution in a 1-cm path length microcuvette. The mixture was shaken vigorously. The mixtures were then kept in the dark for 15 min at room temperature and the decrease in absorption was measured immediately in a UV-Vis spectrophotometer at 515 nm. The blank solution containing the same amount of methanol and DPPH solution was prepared and its absorption was measured daily. The experiment was carried out in triplicate. AscA and BHT were used as positive controls. The RSA of samples, expressed as percentage inhibition of DPPH, was calculated according to the formula: Inhibition percentage (Ip) = [(AB − AA)/AB] × 100, where AB and AA are the absorbance values—checked after 15 min—of the blank sample and of the tested sample solutions, respectively.

[2] = β-carotene-linoleic acid (BCLA) assay; assay type: biochemical; conditions: bleaching of β-carotene, 450 nm, up to 120 min; mean ± SD (n = 3); read-out: BCLA method (IC50)
Protocol: This test was carried out according to the reported method of literature with modification. Approximately 4 mL of a solution of β-carotene in chloroform (1 mg/mL) were pipetted into a flask containing 40 mg of linoleic acid and 400 mg of Tween-40. The chloroform was removed using a rotary evaporator at 40 °C for 5 min, and to the residue, 100 mL of distilled water were added, slowly with vigorous agitation, to form an emulsion. A 96-well micro-titer plate was added with 50 μL of the Part 2.4.1 solution of the test compound and 200 μL of the emulsion, and the absorbance was measured at 450 nm, immediately, against a blank consisting of the emulsion without β-carotene. The plate was allowed to stand at room temperature (20–23 °C), and the absorbance measurements were conducted again at 30 min intervals up to 120 min. All tests were carried out in triplicate. Stable antioxidants of AscA and BHT were used as positive controls. The antioxidant activity (AA) of the test samples was evaluated in terms of bleaching of β-carotene using the formula; AA = [1 − (A0 − At)/(A0' − At')] × 100, where A0 and A0' are the absorbance values measured at zero time of the sample and the blank, respectively, and At and At' are the absorbance measured in the test sample and the blank, respectively, at times up to 120 min.

[3] = Cytotoxicity on Vero cells by MTT assay; assay type: cell-based; conditions: African green monkey (Cercopitheus aethiops)
Protocol: The isolated compounds were tested for in-vitro cytotoxicity using Vero cells by 3-(4,5-dimethylthiazol-2-yl)-2,5-diphenyltetrazolium bromide (MTT) assay. The Vero cell line was initiated from kidney of a normal adult African green monkey, Cercopitheus aethiops, obtained from Virology Laboratory, School of Biosciences and Biotechnology, Faculty of Science and Technology, UKM. Vero cells were maintained in DMEM, supplemented with 10% FBS and cultured at 37 °C in a humidified 5% CO2 incubator. The concentration of stock compound solution was 1.0 mg/mL prepared by dissolving 1 mg compound in 50 μL methanol and 950 μL 5% FBS-DMEM. Sonicator was used to emulsify the compounds for 40 min before the two-fold dilutions made in 5% FBS-DMEM to produce a compound solution at concentrations of 0.5, 0.25, 0125 and 0.0625 mg/mL. Briefly, a total of […] of cell suspension with different concentrations were added to each well in the 96-well micro-titer plates. As a positive control, each well from first to third wells was added with cells of 2.5 × 10^5, 1.25 × 10^5 and 0.625 × 10^5 cells/mL. For the negative control (100% cell death, LC100), […] of DMEM without cells were added to the twelfth well. Cells of 2.5 × 10^5 cells/mL were added into the fourth to eleventh wells. The plates were incubated for 48 h at 37 °C with 5% CO2 until a monolayer is formed. […] After the incubation period, MTT (20 μL, 5 mg/mL) was added into each well and the cells incubated for 2 to 4 h, until a purple precipitate was clearly visible under a microscope, the medium together with MTT (190 μL) was aspirated off from the wells, DMSO (100 μL) was added and the plate shaken for 5 min. The absorbance for each well was measured at 540 nm in a micro-titer plate reader and percentage of cell viability (CV) was calculated manually using the formula: CV = [(Abssample − Absnegative control)/(Abscell − Absnegative control)] × 100.

[4] = cited from earlier work
[5] = Vero cells, MTT, 24 h incubation, read-out: Cytotoxic activities on Vero cell lines (LC50)
[6] = from V. chunganensis, read-out: DPPH RSA
[7] = from Parthenocissus laetevirens, read-out: DPPH RSA antioxidant activities
[8] = from V. wilsonae, read-out: antioxidant activities towards DPPH, IC50

Question: With Oc1ccc([C@@H]2c3c(O)cc(O)cc3[C@@H]3c4c(cc(O)cc4[C@@H]2O)O[C@H]3c2ccc(O)cc2)cc1 (relative stereo) [Compound 1, acuminatol] as the compound, how does the IC50 [1] read?
Answer: Its IC50 is 10060 ± 50 µM.

Question: What about the IC50 [2] of the same compound?
Answer: The IC50 was 180 ± 10 µM.

Question: And the CC50 at 24 h [3, 5]?
Answer: The CC50 at 24 h was 400 µM.

Question: For O=C1O[C@H]([C@@H](O)CO)C(O)=C1O [AscA, ascorbic acid, reference compound], which IC50 [1] is on record?
Answer: The IC50 was 680 µM.

Question: What about the “average fold higher DPPH scavenging activity compared to compounds 1 to 6” value [1] of the same compound?
Answer: The value was 6 fold.

Question: What about the IC50 [2] of the same compound?
Answer: The IC50 was 25200 ± 1740 µM.

Question: With Cc1cc(C(C)(C)C)c(O)c(C(C)(C)C)c1 [BHT, butylated hydroxytoluene, reference compound] as the compound, how does the IC50 [1] read?
Answer: The IC50 was 950 ± 50 µM.

Question: And the “average fold higher DPPH scavenging activity compared to compounds 1 to 6” value [1]?
Answer: Its value is 4 fold.

Question: What about the IC50 [2] of the same compound?
Answer: The IC50 was 90 µM.

Question: For O=C1O[C@@H]2[C@H](O)COC23O[C@@H](c2ccc(O)cc2)[C@H](c2cc(O)cc4c2[C@@H](c2cc(O)cc(O)c2)[C@H](c2ccc(O)cc2)O4)[C@@]13O (stereo partly shown) [Compound 2, laevifonol], which IC50 [1] is on record?
Answer: The IC50 was 4210 ± 230 µM.

Question: And the IC50 [2]?
Answer: Its IC50 is 220 ± 20 µM.

Question: And the CC50 at 24 h [3, 5]?
Answer: Its CC50 at 24 h is 597 µM.

Question: Which IC50 [1] does the source give for Oc1ccc([C@H]2Oc3cc(O)cc4c3[C@@H]2c2cc(O)cc3c2[C@@H](c2cc(O)cc5c2[C@@H]4[C@H](c2ccc(O)cc2)O5)[C@H](c2ccc(O)cc2)O3)cc1 [Compound 3, (+)-α-viniferin] here?
Answer: The IC50 was 6290 ± 50 µM.

Question: What about the IC50 [2] of the same compound?
Answer: The IC50 was 180 µM.

Question: And the CC50 at 24 h [3, 5]?
Answer: The CC50 at 24 h was 208 µM.

Question: Which IC50 [1] does the source give for O=C1C=CC23C(C1)Oc1cc(O)cc4c1C2C(c1cc(O)cc2c1C4C(c1ccc(O)cc1)O2)C(c1cc(O)cc2c1C(c1cc(O)cc(O)c1)C(c1ccc(O)cc1)O2)C3c1ccc(O)cc1 (stereo not shown) [Compound 4, shoreaketone] here?
Answer: The IC50 was 1540 ± 100 µM.

Question: What about the IC50 [2] of the same compound?
Answer: The IC50 was 110 µM.

Question: What about the CC50 at 24 h [3, 5] of the same compound?
Answer: The CC50 at 24 h was 830 µM.

Question: Which IC50 [1] does the source give for Oc1ccc([C@@H]2c3c(O)cc(O)cc3[C@@H]3c4c(cc(O)c5c4[C@@H]2[C@H](c2ccc(O)cc2)[C@H]5c2cc(O)cc4c2[C@@H](c2cc(O)cc(O)c2)[C@H](c2ccc(O)cc2)O4)O[C@H]3c2ccc(O)cc2)cc1 [Compound 5, vaticanol B] here?
Answer: The IC50 was 840 ± 20 µM.

Question: What about the IC50 [2] of the same compound?
Answer: Its IC50 is 100 ± 10 µM.

Question: What about the CC50 at 24 h [3, 5] of the same compound?
Answer: The CC50 at 24 h was 759 µM.

Question: Which IC50 [1] does the source give for Oc1ccc([C@H]2c3c(O)cc(O)cc3[C@H]3c4c(cc(O)cc4[C@@H]2[C@H]2c4cc(O)cc5c4[C@H](c4cc(O)cc(O)c4[C@@H]2c2ccc(O)cc2)[C@@H](c2ccc(O)cc2)O5)O[C@@H]3c2ccc(O)cc2)cc1 [Compound 6, (−)-hopeaphenol] here?
Answer: Its IC50 is 2780 ± 160 µM.

Question: What about the IC50 [2] of the same compound?
Answer: Its IC50 is 100 ± 10 µM.

Question: And the CC50 at 24 h [3]?
Answer: The CC50 at 24 h was 161 µM.

Question: For Oc1ccc(/C=C/c2c3c(cc4c2[C@H](c2cc(O)c(Cc5c(O)cc(O)cc5[C@@H]5c6c(O)cc7c8c6[C@H]([C@@H](c6ccc(O)cc6)c6c(O)cc(O)cc6[C@@H]8[C@@H](c6ccc(O)cc6)O7)[C@H]5c5ccc(O)cc5)c(O)c2)[C@@H](c2ccc(O)cc2)O4)O[C@H](c2ccc(O)cc2)[C@H]3c2cc(O)cc(O)c2)cc1 [chunganenol], which IC50 [4, 6] is on record?
Answer: Its IC50 is 37.3 µM.

Question: For Oc1ccc([C@H]2c3c(O)cc(O)c4c3c(cc3ccc(O)cc34)[C@@H]2c2cc(O)cc(O)c2)cc1 [laetevirenol A], which IC50 [4, 7] is on record?
Answer: The IC50 was 38.4 µM.

Question: For Oc1cc(O)cc(/C=C/c2ccc(O)c(O)c2)c1 [piceatanol], which IC50 ([4]; from Cyperus longus, read-out: DPPH RSA IC50) is on record?
Answer: Its IC50 is 11 µM.

Question: Which IC50 [4, 8] does the source give for C[C@H](O)/C=C/[C@@]1(O)[C@H](C)[C@H](O)[C@@H](O)CC1(C)C [wilsonol A] here?
Answer: Its IC50 is 104 µM.

Question: With C[C@@H]1[C@H](O)[C@@H](O)CC(C)(C)[C@@]1(O)/C=C/[C@@H](C)O [wilsonol B] as the compound, how does the IC50 [4, 8] read?
Answer: The IC50 was 195 µM.

Question: With CC(=O)/C=C/[C@@]1(O)[C@H](C)[C@H](O)[C@@H](O)CC1(C)C [wilsonol C] as the compound, how does the IC50 [4, 8] read?
Answer: The IC50 was 182 µM.

Question: For (+)-amurensin G, which IC50 [4, 6] is on record?
Answer: Its IC50 is 138 µM.

Question: For (+)-gnetin H, which IC50 [4, 6] is on record?
Answer: Its IC50 is 251 µM.

Question: With diviniferin B as the compound, how does the IC50 [4, 8] read?
Answer: The IC50 was 175 µM.

Question: With laetevirenol B as the compound, how does the IC50 [4, 7] read?
Answer: Its IC50 is 37.3 µM.

Question: For laetevirenol C, which IC50 [4, 7] is on record?
Answer: The IC50 was 111 µM.

Question: With laetevirenol D as the compound, how does the IC50 [4, 7] read?
Answer: Its IC50 is 128 µM.

Question: For laetevirenol E, which IC50 [4, 7] is on record?
Answer: Its IC50 is 158 µM.
